Source: ChEMBL document CHEMBL1155307, “4-Anilino-7-pyridyl-3-quinolinecarbonitriles as Src kinase inhibitors” (Bioorg Med Chem Lett, 2009)

Target: Proto-oncogene tyrosine-protein kinase Src (Homo sapiens, UniProt P12931)
Experiment: Inhibition of Src

Chain of Proto-oncogene tyrosine-protein kinase Src (P12931 2-536 limits assumed): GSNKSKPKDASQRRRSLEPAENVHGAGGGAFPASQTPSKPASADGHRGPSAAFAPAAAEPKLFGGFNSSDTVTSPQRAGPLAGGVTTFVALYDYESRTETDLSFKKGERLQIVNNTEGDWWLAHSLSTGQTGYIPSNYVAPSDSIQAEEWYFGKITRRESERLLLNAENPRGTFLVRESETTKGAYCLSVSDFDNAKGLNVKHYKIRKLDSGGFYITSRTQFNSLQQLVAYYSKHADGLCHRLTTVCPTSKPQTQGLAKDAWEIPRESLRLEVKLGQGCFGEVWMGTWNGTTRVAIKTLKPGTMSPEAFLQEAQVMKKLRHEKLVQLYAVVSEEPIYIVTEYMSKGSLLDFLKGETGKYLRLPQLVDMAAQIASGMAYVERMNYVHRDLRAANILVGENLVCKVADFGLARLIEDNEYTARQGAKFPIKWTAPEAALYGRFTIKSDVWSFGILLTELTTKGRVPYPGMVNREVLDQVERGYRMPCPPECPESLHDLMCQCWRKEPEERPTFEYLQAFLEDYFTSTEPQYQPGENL

- IC50: 950 nM
SMILES: COc1cc(Nc2c(C#N)cnc3cc(-c4ncccc4CN4CCOCC4)ccc23)c(Cl)cc1Cl
